From patent US9637485B2, “6,7-dihydrobenzo[a]quinolizin-2-one derivatives for the treatment and prophylaxis of hepatitis B virus infection” (Hoffmann-La Roche Inc., priority 2014, dated 2017) come the findings set out here.

pIC50: −log10 of the molar value.

The first test has as its system HBsAg. In words: HBsAg assay (CLIA of secreted HBsAg in HepG2.2.15 culture supernatant). Particulars: Hepatitis B virus, HepG2.2.15, read-out: IC50 (HBsAg secretion reduced by 50% compared to the no drug control), HepG2.2.15 cells, culture supernatant, HBsAg CLIA. It is filed as cell-based, HBV. The method, then: HepG2.2.15 cells (Acs et al. Proc Natl Acad Sci USA, 84, (1987), 4641-4), a constitutively HBV-expressing cell line were cultured in DMEM+Glutamax-I medium (Invitrogen, Carlsbad, Calif., USA, Catalog number: 11320082), supplemented with 10% fetal bovine serum (Invitrogen, Catalog number: 10099141) and G418 (Invitrogen, Catalog number: 10131027) at a final concentration of 200 mg/L and maintained in 5% CO2 at 37° C.
HepG2.2.15 cells were seeded in duplicate into white, 96-well plates at 1.5×10^4 cells/well. The cells were treated with a three-fold serial dilution series of the compounds in DMSO. The final DMSO concentration in all wells was 1% and DMSO was used as no drug control.
The HBsAg chemiluminescence immunoassay (CLIA) kit (Autobio Diagnostics Co., Zhengzhou, China, Catalog number: CL0310-2) was used to measure the levels of secreted HBV antigens semi-quantitatively. For the detection 50 μL/well culture supernatant was used and HBsAg was quantified using HBsAg chemiluminescence immunoassay (CLIA) kit (Autobio Diagnostics Co., Zhengzhou, China, Catalog number: CL0310-2), 50 μl of the supernatant was transferred to the CLIA assay plate and 50 μL of enzyme conjugate reagent was added into each well. The plates were sealed and gently agitated for 1 hour at room temperature. The supernatant-enzyme-mixture was discarded and wells were washed 6 times with 300 μL of PBS. The residual liquid was removed by plating the CLIA plate right side down on absorbent tissue paper. 25 μL of substrates A and B were added to each well. Luminance was measured using a luminometer (Mithras LB 940 Multimode Microplate Reader) after 10 minutes incubation. Dose-response curves were generated and the IC50 value was extrapolated by using the E-WorkBook Suite (ID Business Solutions Ltd., Guildford, UK). The IC50 was defined as the compound concentration (or conditioned media log dilution) at which HBsAg secretion was reduced by 50% compared to the no drug control.
Regarding `COCCCOc1cc2c(cc1OC)-c1cc(=O)c(C(=O)O)cn1C(COC)C2` (stereo not drawn) [Example 18, 10-Methoxy-6-(methoxymethyl)-9-(3-methoxypropoxy)-2-oxo-6,7-dihydrobenzo[a]quinolizine-3-carboxylic acid], the pIC50 – broadly, the IC50 on a negative log10 scale, so that one unit is a factor of ten – is 7.12.
As to `COCC(C)(C)C1Cc2cc(OCCC3CCCN3C)c(OC)cc2-c2cc(=O)c(C(=O)O)cn21` (stereo not drawn) [Example 17, 10-Methoxy-6-(2-methoxy-1,1-dimethyl-ethyl)-9-[2-(1-methylpyrrolidin-2-yl)ethoxy]-2-oxo-6,7-dihydrobenzo[a]quinolizine-3-carboxylic acid], the pIC50 was 6.27.
For the molecule `COCC(C)(C)C1Cc2cc(OCCCN3CCCC3=O)c(OC)cc2-c2cc(=O)c(C(=O)O)cn21` (stereo not drawn) [Example 12, 10-Methoxy-6-(2-methoxy-1,1-dimethyl-ethyl)-2-oxo-9-[3-(2-oxopyrrolidin-1-yl)propoxy]-6,7-dihydrobenzo[a]quinolizine-3-carboxylic acid], the pIC50 was 6.72.
Regarding `CCOc1cc2c(cc1OCC)-c1cc(=O)c(C(=O)O)cn1C(COC(C)=O)C2` (stereo not drawn) [Example 36, 6-(Acetoxymethyl)-9,10-diethoxy-2-oxo-6,7-dihydrobenzo[a]quinolizine-3-carboxylic acid], the pIC50 is 6.60.
Regarding `COCC(C)(C)C1Cc2cc(OCCCCCCNC(=O)OC(C)(C)C)c(OC)cc2-c2cc(=O)c(C(=O)O)cn21` (stereo not drawn) [Example 14, 9-[6-(tert-Butoxycarbonylamino)hexoxy]-10-methoxy-6-(2-methoxy-1,1-dimethyl-ethyl)-2-oxo-6,7-dihydrobenzo[a]quinolizine-3-carboxylic acid], the pIC50 was 8.52.
As to `CCOc1cc2c(cc1OCC)-c1cc(=O)c(C(=O)O)cn1C(CN)C2` (stereo not drawn) [Example 37, 6-(Aminomethyl)-9,10-diethoxy-2-oxo-6,7-dihydrobenzo[a]quinolizine-3-carboxylic acid], the pIC50 was 5.81.
On the same count and under the same terms, under `COCC(C)(C)C1Cc2cc(OCc3ccccc3)c(OC)cc2-c2cc(=O)c(C(=O)O)cn21` (stereo not drawn) [Example 1, 9-Benzyloxy-10-methoxy-6-(2-methoxy-1,1-dimethyl-ethyl)-2-oxo-6,7-dihydrobenzo[a]quinolizine-3-carboxylic acid] stands 8.15.
With `COCC(C)(C)C1Cc2cc(C#N)c(OC)cc2-c2cc(=O)c(C(=O)O)cn21` (stereo not drawn) [Example 47, 9-Cyano-10-methoxy-6-(2-methoxy-1,1-dimethyl-ethyl)-2-oxo-6,7-dihydrobenzo[a]quinolizine-3-carboxylic acid], the pIC50 is 6.64.
Take `COCC(C)(C)C1Cc2cc(OCCCN3CCOCC3)c(OC)cc2-c2cc(=O)c(C(=O)O)cn21` (stereo not drawn) [Example 4, 10-Methoxy-6-(2-methoxy-1,1-dimethyl-ethyl)-9-(3-morpholinopropoxy)-2-oxo-6,7-dihydrobenzo[a]quinolizine-3-carboxylic acid]: the pIC50 was 7.85.
On to `COCC(C)(C)C1Cc2cc(OCCCN(C)C)c(OC)cc2-c2cc(=O)c(C(=O)O)cn21` (stereo not drawn) [Example 13, 9-[3-(Dimethylamino)propoxy]-10-methoxy-6-(2-methoxy-1,1-dimethyl-ethyl)-2-oxo-6,7-dihydrobenzo[a]quinolizine-3-carboxylic acid], for which the pIC50 was 6.24.
The same measure, in the same setting: under `CCc1cc2c(cc1OC)-c1cc(=O)c(C(=O)O)cn1C(C(C)(C)COC)C2` (stereo not drawn) [Example 45, 9-Ethyl-10-methoxy-6-(2-methoxy-1,1-dimethyl-ethyl)-2-oxo-6,7-dihydrobenzo[a]quinolizine-3-carboxylic acid] stands 7.13; under `COCC(C)(C)C1Cc2cc(OCCCO)c(OC)cc2-c2cc(=O)c(C(=O)O)cn21` (stereo not drawn) [Example 6, 9-(3-Hydroxypropoxy)-10-methoxy-6-(2-methoxy-1,1-dimethyl-ethyl)-2-oxo-6,7-dihydrobenzo[a]quinolizine-3-carboxylic acid], 7.66.
On the same count and under the same terms, under `COCC(C)(C)C1Cc2cc(OCCCn3cccn3)c(OC)cc2-c2cc(=O)c(C(=O)O)cn21` (stereo not drawn) [Example 44, 10-Methoxy-6-(2-methoxy-1,1-dimethyl-ethyl)-2-oxo-9-(3-pyrazol-1-ylpropoxy)-6,7-dihydrobenzo[a]quinolizine-3-carboxylic acid] stands 6.72; under `COCC(C)(C)C1Cc2cc(N3CCCC3)c(OC)cc2-c2cc(=O)c(C(=O)O)cn21` (stereo not drawn) [Example 46, 10-Methoxy-6-(2-methoxy-1,1-dimethyl-ethyl)-2-oxo-9-pyrrolidin-1-yl-6,7-dihydrobenzo[a]quinolizine-3-carboxylic acid], 8.05; under `COCCOc1cc2c(cc1Cl)-c1cc(=O)c(C(=O)O)cn1C(CS(C)(=O)=O)C2` (stereo not drawn) [Example 34, 10-Chloro-9-(2-methoxyethoxy)-6-(methylsulfonylmethyl)-2-oxo-6,7-dihydrobenzo[a]quinolizine-3-carboxylic acid], 5.47.
Take `CCOc1cc2c(cc1OCC)-c1cc(=O)c(C(=O)O)cn1C(CN(C)C(C)=O)C2` (stereo not drawn) [Example 41, 6-[[Acetyl(methyl)amino]methyl]-9,10-diethoxy-2-oxo-6,7-dihydrobenzo[a]quinolizine-3-carboxylic acid]: the pIC50 was 5.31.
Take `CCOc1cc2c(cc1OCC)-c1cc(=O)c(C(=O)O)cn1C(CO)C2` (stereo not drawn) [Example 35, 9,10-Diethoxy-6-(hydroxymethyl)-2-oxo-6,7-dihydrobenzo[a]quinolizine-3-carboxylic acid]: the pIC50 is 6.06.
As for `COCC(C)(C)C1Cc2cc(OCCCCCCO)c(OC)cc2-c2cc(=O)c(C(=O)O)cn21` (stereo not drawn) [Example 5, 9-(6-Hydroxyhexoxy)-10-methoxy-6-(2-methoxy-1,1-dimethyl-ethyl)-2-oxo-6,7-dihydrobenzo[a]quinolizine-3-carboxylic acid], the pIC50 is 8.22.
`CCOc1cc2c(cc1OCC)-c1cc(=O)c(C(=O)O)cn1C(CN1CCCC1)C2` (stereo not drawn) [Example 42, 9,10-Diethoxy-2-oxo-6-(pyrrolidin-1-ylmethyl)-6,7-dihydrobenzo[a]quinolizine-3-carboxylic acid]: the pIC50 was 6.67.
Turning to `CCOCCOc1cc2c(cc1OC)-c1cc(=O)c(C(=O)O)cn1C(C(C)(C)COC)C2` (stereo not drawn) [Example 8, 9-(2-Ethoxyethoxy)-10-methoxy-6-(2-methoxy-1,1-dimethyl-ethyl)-2-oxo-6,7-dihydrobenzo[a]quinolizine-3-carboxylic acid], the pIC50 is 7.92.
Consider `CCOc1cc2c(cc1OCC)-c1cc(=O)c(C(=O)O)cn1C(CN(C)C)C2` (stereo not drawn) [Example 43, 6-[(Dimethylamino)methyl]-9,10-diethoxy-2-oxo-6,7-dihydrobenzo[a]quinolizine-3-carboxylic acid], for which the negative logarithm of the IC50 (pIC50) was 6.87.
On to `CCOc1cc2c(cc1OCC)-c1cc(=O)c(C(=O)O)cn1C(CNC(=O)c1ccccc1)C2` (stereo not drawn) [Example 39, 6-(Benzamidomethyl)-9,10-diethoxy-2-oxo-6,7-dihydrobenzo[a]quinolizine-3-carboxylic acid], for which the pIC50 is 4.70.
On to `COCCCOc1cc2c(cc1Cl)-c1cc(=O)c(C(=O)O)cn1C(C(C)(C)COC)C2` (racemic) [Example 30, 10-Chloro-6-(2-methoxy-1,1-dimethyl-ethyl)-9-(3-methoxypropoxy)-2-oxo-6,7-dihydrobenzo[a]quinolizine-3-carboxylic acid], for which the pIC50 is 8.40.

Still in this test, the particulars now being: read-out: IC50 (HBsAg secretion reduced by 50% compared to the no drug control); HepG2.2.15 cells, culture supernatant, HBsAg CLIA.
In the case of `COCCCOc1cc2c(cc1OC)-c1cc(=O)c(C(=O)O)cn1[C@H](C(C)(C)COC)C2` (single isomer, unassigned) [Example 29, (−)-10-methoxy-6-(2-methoxy-1,1-dimethyl-ethyl)-9-(3-methoxypropoxy)-2-oxo-6,7-dihydrobenzo[a]quinolizine-3-carboxylic acid], the pIC50 is 6.40.
Take `COCCCOc1cc2c(cc1OC)-c1cc(=O)c(C(=O)O)cn1C(C(C)(C)CO)C2` (single isomer, unassigned) [Example 26, (−)-6-(2-hydroxy-1,1-dimethyl-ethyl)-10-methoxy-9-(3-methoxypropoxy)-2-oxo-6,7-dihydrobenzo[a]quinolizine-3-carboxylic acid]: the pIC50 was 7.08.
`COCCCOc1cc2c(cc1OC)-c1cc(=O)c(C(=O)O)cn1[C@H](C(C)(C)O)C2` (single isomer, unassigned) [Example 21, (+)-6-(1-Hydroxy-1-methyl-ethyl)-10-methoxy-9-(3-methoxypropoxy)-2-oxo-6,7-dihydrobenzo[a]quinolizine-3-carboxylic acid]: the pIC50 was 7.39.
Same read-out and setting: the value for `COCCCOc1cc2c(cc1Cl)-c1cc(=O)c(C(=O)O)cn1C(C(C)(C)COC)C2` (single isomer, unassigned) [Example 31, (+)-10-Chloro-6-(2-methoxy-1,1-dimethyl-ethyl)-9-(3-methoxypropoxy)-2-oxo-6,7-dihydrobenzo[a]quinolizine-3-carboxylic acid] was 8.52.
